Measurements published in ChEMBL document CHEMBL1145519, “Exploitation of structural and regulatory diversity in glutamate racemases” (Nature, 2007).
pIC50, pKd, pKi: −log10 of the molar value. In brackets after ≈: the same amount, converted by molar mass.

Tests used:
[1] = target: T1, Glutamate racemase (Helicobacter pylori (strain ATCC 700392 / 26695) (Campylobacterpylori), UniProt P56068); assay: Inhibition of Helicobacter pylori glutamate racemase
T1 sequence (P56068 whole entry): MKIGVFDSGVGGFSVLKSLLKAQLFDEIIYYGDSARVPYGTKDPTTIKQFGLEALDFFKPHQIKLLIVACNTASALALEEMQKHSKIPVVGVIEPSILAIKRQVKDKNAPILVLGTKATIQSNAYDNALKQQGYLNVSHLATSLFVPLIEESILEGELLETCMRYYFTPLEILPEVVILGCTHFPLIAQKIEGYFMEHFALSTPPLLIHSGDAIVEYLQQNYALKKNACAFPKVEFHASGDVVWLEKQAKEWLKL

[2] = target: T1, Glutamate racemase; assay: Binding affinity to Helicobacter pylori MurI by protein fluorescence binding assay
[3] = Inhibition of MurI in Staphylococcus aureus
[4] = target: T2, Glutamate racemase (Streptococcus pneumoniae serotype 4 (strain ATCC BAA-334 / TIGR4), UniProt P63640); assay: Inhibition of MurI in Streptococcus pneumoniae
T2 sequence (P63640 whole entry): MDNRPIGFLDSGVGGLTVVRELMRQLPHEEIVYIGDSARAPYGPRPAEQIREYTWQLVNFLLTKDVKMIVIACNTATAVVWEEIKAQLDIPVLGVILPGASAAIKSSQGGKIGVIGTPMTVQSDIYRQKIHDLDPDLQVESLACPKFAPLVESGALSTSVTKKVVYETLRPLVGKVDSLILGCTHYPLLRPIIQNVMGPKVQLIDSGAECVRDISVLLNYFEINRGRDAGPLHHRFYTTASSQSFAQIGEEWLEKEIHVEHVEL

[5] = Inhibition of MurI in Escherichia coli
[6] = system: Helicobacter pylori; assay: Antimicrobial activity against Helicobacter pylori; assay type: functional
[7] = system: Staphylococcus aureus; assay: Antimicrobial activity against Staphylococcus aureus; assay type: functional
[8] = system: Streptococcus pneumoniae; assay: Antimicrobial activity against Streptococcus pneumoniae; assay type: functional
[9] = system: Escherichia coli; assay: Antimicrobial activity against Escherichia coli; assay type: functional
[10] = target: T1, Glutamate racemase; assay: Binding affinity to Helicobacter pylori MurI by isothermal titration calorimetry
[11] = target: Glutamate racemase (Helicobacter pylori (strain ATCC 700392 / 26695) (Campylobacterpylori), UniProt P56068, A75T); assay: Inhibition of Helicobacter pylori MurI A75T mutant
[12] = target: Glutamate racemase (Helicobacter pylori (strain ATCC 700392 / 26695) (Campylobacterpylori), UniProt P56068, E151K); assay: Inhibition of Helicobacter pylori MurI E151K mutant
Sequence of Glutamate racemase (Helicobacter pylori (strain ATCC 700392 / 26695) (Campylobacterpylori), UniProt P56068, E151K) (P56068 whole entry E151K): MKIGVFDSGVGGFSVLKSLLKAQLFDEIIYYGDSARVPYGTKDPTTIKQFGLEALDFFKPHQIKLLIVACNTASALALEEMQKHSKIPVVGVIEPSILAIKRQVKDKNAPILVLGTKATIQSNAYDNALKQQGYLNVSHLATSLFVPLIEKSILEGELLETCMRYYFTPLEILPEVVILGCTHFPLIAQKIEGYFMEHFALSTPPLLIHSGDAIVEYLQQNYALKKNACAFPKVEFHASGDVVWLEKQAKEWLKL

Sequence of Glutamate racemase (Helicobacter pylori (strain ATCC 700392 / 26695) (Campylobacterpylori), UniProt P56068, A75T) (P56068 whole entry A75T): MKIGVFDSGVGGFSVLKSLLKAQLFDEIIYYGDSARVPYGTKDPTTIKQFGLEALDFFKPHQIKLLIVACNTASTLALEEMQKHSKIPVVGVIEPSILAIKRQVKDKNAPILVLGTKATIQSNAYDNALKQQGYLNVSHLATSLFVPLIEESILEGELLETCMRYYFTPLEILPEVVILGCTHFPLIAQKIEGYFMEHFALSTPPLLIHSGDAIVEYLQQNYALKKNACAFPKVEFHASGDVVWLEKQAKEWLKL

pIC50 [1]	pKd [2]	pIC50 [3]	pIC50 [4]	pIC50 [5]	MIC [6] [µg/mL]	MIC [7] [µg/mL]	MIC [8] [µg/mL]	MIC [9] [µg/mL]	pKd [10]	SMILES	pKi [1]	pKi [11]	pKi [12]
7.60	7.60	< 3.40	< 3.40	< 3.40	0.5 (≈ 1 µM)	> 64	> 64	> 64		Cn1cc(C#N)cc1-c1c2c(=O)n(C)c(=O)n(CC3CC3)c2nn1Cc1ccnc2ccc(Cl)cc12			
5.85	5.41	< 3.40	< 3.40	< 3.40	4 (≈ 9.1 µM)	> 64	> 64	> 64	5.54	CC(C)Cn1c(=O)n(C)c(=O)c2c(-c3ccncc3)n(Cc3cccc4ccccc34)nc21			
										N[C@H](CCC(=O)O)C(=O)O [D-GLUTAMATE]	5.24	3.18	< 1.00
